In BigSolDB 2.1:

`CCOc1ccc(C2NC(=O)NC=C2C(=O)c2cc(OC)c(OC)c(OC)c2)cc1` (stereo not given) gave a solubility (mole fraction) (in DMSO, 298.15 K) of 0.00547, a solubility (mole fraction) (in DMSO, 303.15 K) of 0.0065 and a solubility (mole fraction) (in DMSO, 308.15 K) of 0.00754. The solubility (mole fraction) (in DMSO, 313.15 K) was 0.00879, the solubility (mole fraction) (in DMSO, 318.15 K) was 0.00996 and the solubility (mole fraction) (in PEG-400, 298.15 K) was 0.00521. For the same molecule, the solubility (mole fraction) (in PEG-400, 303.15 K) was 0.00675, the solubility (mole fraction) (in PEG-400, 308.15 K) was 0.00831 and the solubility (mole fraction) (in PEG-400, 313.15 K) was 0.0103. It also gave a solubility (mole fraction) (in PEG-400, 318.15 K) of 0.0121, a solubility (mole fraction) (in ethanol, 298.15 K) of 0.000294 and a solubility (mole fraction) (in ethanol, 303.15 K) of 0.000402. It also gave a solubility (mole fraction) (in ethanol, 308.15 K) of 0.000516, a solubility (mole fraction) (in ethanol, 313.15 K) of 0.000654 and a solubility (mole fraction) (in ethanol, 318.15 K) of 0.000802. For the same molecule, the solubility (mole fraction) (in ethyl acetate, 298.15 K) was 0.00143, the solubility (mole fraction) (in ethyl acetate, 303.15 K) was 0.00174 and the solubility (mole fraction) (in ethyl acetate, 308.15 K) was 0.00222. The solubility (mole fraction) (in ethyl acetate, 313.15 K) was 0.00286, the solubility (mole fraction) (in ethyl acetate, 318.15 K) was 0.00345 and the solubility (mole fraction) (in ethylene glycol, 298.15 K) was 0.000397. The solubility (mole fraction) (in ethylene glycol, 303.15 K) was 0.000543, the solubility (mole fraction) (in ethylene glycol, 308.15 K) was 0.000697 and the solubility (mole fraction) (in ethylene glycol, 313.15 K) was 0.000866. For the same molecule, the solubility (mole fraction) (in ethylene glycol, 318.15 K) was 0.00107, the solubility (mole fraction) (in isopropanol, 298.15 K) was 0.000469 and the solubility (mole fraction) (in isopropanol, 303.15 K) was 0.000619. For the same molecule, the solubility (mole fraction) (in isopropanol, 308.15 K) was 0.000772, the solubility (mole fraction) (in isopropanol, 313.15 K) was 0.000958 and the solubility (mole fraction) (in isopropanol, 318.15 K) was 0.00113. It also gave a solubility (mole fraction) (in methanol, 298.15 K) of 0.000252, a solubility (mole fraction) (in methanol, 303.15 K) of 0.000328 and a solubility (mole fraction) (in methanol, 308.15 K) of 0.000407. The solubility (mole fraction) (in methanol, 313.15 K) was 0.00049, the solubility (mole fraction) (in methanol, 318.15 K) was 0.000577 and the solubility (mole fraction) (in n-butanol, 298.15 K) was 0.000672. The solubility (mole fraction) (in n-butanol, 303.15 K) was 0.000859, the solubility (mole fraction) (in n-butanol, 308.15 K) was 0.00105 and the solubility (mole fraction) (in n-butanol, 313.15 K) was 0.00125. It also gave a solubility (mole fraction) (in n-butanol, 318.15 K) of 0.00146, a solubility (mole fraction) (in propylene glycol, 298.15 K) of 0.000504 and a solubility (mole fraction) (in propylene glycol, 303.15 K) of 0.000682. The solubility (mole fraction) (in propylene glycol, 308.15 K) was 0.00087, the solubility (mole fraction) (in propylene glycol, 313.15 K) was 0.00107 and the solubility (mole fraction) (in propylene glycol, 318.15 K) was 0.00133. The solubility (mole fraction) (in sec-butanol, 298.15 K) was 0.00067, the solubility (mole fraction) (in sec-butanol, 303.15 K) was 0.000855 and the solubility (mole fraction) (in sec-butanol, 308.15 K) was 0.00104. For the same molecule, the solubility (mole fraction) (in sec-butanol, 313.15 K) was 0.00124, the solubility (mole fraction) (in sec-butanol, 318.15 K) was 0.00145 and the solubility (mole fraction) (in transcutol, 298.15 K) was 0.00301. For the same molecule, the solubility (mole fraction) (in transcutol, 303.15 K) was 0.00367, the solubility (mole fraction) (in transcutol, 308.15 K) was 0.00441 and the solubility (mole fraction) (in transcutol, 313.15 K) was 0.00519. For the same molecule, the solubility (mole fraction) (in transcutol, 318.15 K) was 0.00624, the solubility (mole fraction) (in water, 298.15 K) was 7.87e-06 and the solubility (mole fraction) (in water, 303.15 K) was 1.09e-05. For the same molecule, the solubility (mole fraction) (in water, 308.15 K) was 1.51e-05, the solubility (mole fraction) (in water, 313.15 K) was 2.02e-05 and the solubility (mole fraction) (in water, 318.15 K) was 2.54e-05.
